IC50 data for 37 compounds are collected here from ChEMBL document CHEMBL3638721, “C-linked hydroxamic acid derivatives useful as antibacterial agents” (2014).

This test has as its target T1, UDP-3-O-acyl-N-acetylglucosamine deacetylase (Pseudomonas aeruginosa (strain ATCC 15692 / PAO1 / 1C / PRS 101 / LMG12228), UniProt P47205).
T1 sequence (P47205 whole entry): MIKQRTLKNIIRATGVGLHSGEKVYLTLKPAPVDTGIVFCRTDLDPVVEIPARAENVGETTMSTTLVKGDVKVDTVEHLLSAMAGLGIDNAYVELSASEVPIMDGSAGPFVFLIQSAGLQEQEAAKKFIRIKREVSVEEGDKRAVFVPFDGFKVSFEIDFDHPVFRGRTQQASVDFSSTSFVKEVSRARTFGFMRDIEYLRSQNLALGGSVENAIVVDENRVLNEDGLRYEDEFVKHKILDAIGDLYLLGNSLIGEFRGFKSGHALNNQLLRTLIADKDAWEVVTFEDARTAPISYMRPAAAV
As to the kind of experiment: At the end of 1 hour, 5 ul of 1N HCl was added to stop the enzyme reaction; the plates were centrifuged, and then processed with the BioTrove Rapidfire HTMS Mass Spectrometry System.

Molecules are shown by their SMILES.

With `CC(CCc1ccc(OC2CCCCC2)cc1)(C(=O)NO)S(C)(=O)=O` (configuration not stated), the IC50 (commonly the concentration that inhibits the measured activity by half) was 0.753 nM. `CCC(CC)COc1ccc(CCC(C)(C(=O)NO)S(C)(=O)=O)cc1` (configuration not stated) yielded an IC50 of 1.29 nM.

For `CCC(c1ccccc1)c1noc(COc2ccc(CCC(C)(C(=O)NO)S(C)(=O)=O)cc2)n1` (configuration not stated), inhibition was half-maximal at 20.5 nM (IC50). Take `CC(CCc1ccc(OCc2nc(-c3cccc(F)c3)no2)cc1)(C(=O)NO)S(C)(=O)=O` (configuration not stated): the IC50 is 3.81 nM. The same measure for `CC(CCc1ccc(OCCCOCc2ccccc2)cc1)(C(=O)NO)S(C)(=O)=O` (configuration not stated): 21.1 nM. `Cc1ncccc1COc1ccc(CCC(C)(C(=O)NO)S(C)(=O)=O)cc1` (configuration not stated) registered an IC50 of 5.59 nM.

`CC(CCc1ccc(OCC2CC2)cc1)(C(=O)NO)S(C)(=O)=O` (configuration not stated) came in with an IC50 of 10.5 nM. The compound `CC(CCc1ccc(OCCOc2ccccc2)cc1)(C(=O)NO)S(C)(=O)=O` (configuration not stated) registered an IC50 of 1.52 nM. Next, `CC(CCc1ccc(OCc2ccc(F)cc2C(F)(F)F)cc1)(C(=O)NO)S(C)(=O)=O` (configuration not stated): 2.36 nM. In the case of `CC(CCc1ccc(OCc2cccc(Cl)c2)cc1)(C(=O)NO)S(C)(=O)=O` (configuration not stated), the IC50 was determined as 1.32 nM. Take `CCCCCCOc1ccc(CCC(C)(C(=O)NO)S(C)(=O)=O)cc1` (configuration not stated): the IC50 was found to be 6.31 nM.

For `CC(CCc1ccc(OCc2nc(-c3cccc(F)c3F)no2)cc1)(C(=O)NO)S(C)(=O)=O` (configuration not stated), the IC50 came out at 5.31 nM. Next, `Cc1ccc(C)c(COc2ccc(CCC(C)(C(=O)NO)S(C)(=O)=O)cc2)c1` (configuration not stated): 4.25 nM; `CC(CCc1ccc(OCc2nc(-c3cc(F)cc(F)c3)no2)cc1)(C(=O)NO)S(C)(=O)=O` (configuration not stated): 5.81 nM; `CC(CCc1ccc(OCc2nc(Cc3cc(F)ccc3F)no2)cc1)(C(=O)NO)S(C)(=O)=O` (configuration not stated): 0.714 nM.

The compound `Cc1cc(C)cc(COc2ccc(CCC(C)(C(=O)NO)S(C)(=O)=O)cc2)c1` (configuration not stated) came in with an IC50 of 4.5 nM. The same measure for `COc1ccc(F)c(-c2noc(COc3ccc(CCC(C)(C(=O)NO)S(C)(=O)=O)cc3)n2)c1` (configuration not stated): 6.39 nM; for `Cc1cccc(COc2ccc(CCC(C)(C(=O)NO)S(C)(=O)=O)cc2)c1F` (configuration not stated): 0.525 nM; for `Cc1ccc(COc2ccc(CCC(C)(C(=O)NO)S(C)(=O)=O)cc2)cc1` (configuration not stated): 1.02 nM. `CC(CCc1ccc(OCC2CCC2)cc1)(C(=O)NO)S(C)(=O)=O` (configuration not stated) yielded an IC50 of 3.28 nM. As for `CC(C)CCCOc1ccc(CCC(C)(C(=O)NO)S(C)(=O)=O)cc1` (configuration not stated), the 50% inhibitory concentration (IC50) is 3.22 nM. `CC(CCc1ccc(OCc2cccc(F)c2)cc1)(C(=O)NO)S(C)(=O)=O` (configuration not stated) yielded an IC50 of 0.834 nM. Next, `Cc1ccc(-c2noc(COc3ccc(CCC(C)(C(=O)NO)S(C)(=O)=O)cc3)n2)cc1` (configuration not stated): 3.48 nM. The same measure for `Cc1ccc(COc2ccc(CCC(C)(C(=O)NO)S(C)(=O)=O)cc2)cn1` (configuration not stated): 5.96 nM.

Regarding `CC(CCc1ccc(OCCc2ccccc2)cc1)(C(=O)NO)S(C)(=O)=O` (configuration not stated), the IC50 was determined as 4.03 nM. Take `CC(CCc1ccc(OCc2nc(C3CCCC3)no2)cc1)(C(=O)NO)S(C)(=O)=O` (configuration not stated): the IC50 came out at 7.2 nM. In turn, `CC(CCc1ccc(OCc2cccc(OC(F)(F)F)c2)cc1)(C(=O)NO)S(C)(=O)=O` (configuration not stated) had an IC50 of 2.71 nM.

As to `CC(CCc1ccc(OCc2cc(C#N)ccc2F)cc1)(C(=O)NO)S(C)(=O)=O` (configuration not stated), half-maximal inhibition (IC50) required 1.36 nM.

`CC(CCc1ccc(OCc2nc3ccccc3s2)cc1)(C(=O)NO)S(C)(=O)=O` (configuration not stated) returned a concentration for half-maximal inhibition (IC50) of 0.651 nM. `CC(CCc1ccc(OCc2ccc3ccccc3n2)cc1)(C(=O)NO)S(C)(=O)=O` (configuration not stated) returned an IC50 of 13.9 nM.

Compound `CC(CCc1ccc(OCCc2ccncc2)cc1)(C(=O)NO)S(C)(=O)=O` (configuration not stated) showed an IC50 of 13.7 nM. Compound `CC(CCc1ccc(OCCC2CCCC2)cc1)(C(=O)NO)S(C)(=O)=O` (configuration not stated) showed an IC50 of 1.27 nM. Next, `CC(CCc1ccc(OCCCC2CCCC2)cc1)(C(=O)NO)S(C)(=O)=O` (configuration not stated): 2.55 nM.

For the compound `CC(CCc1ccc(OCCC2CCCCC2)cc1)(C(=O)NO)S(C)(=O)=O` (configuration not stated), 2.79 nM corresponded to half-maximal inhibition (IC50). The same measure for `CC(CCc1ccc(OCCCC2CCCCC2)cc1)(C(=O)NO)S(C)(=O)=O` (configuration not stated): 4.56 nM; for `CC(CCc1ccc(OCCCc2ccccc2)cc1)(C(=O)NO)S(C)(=O)=O` (configuration not stated): 10.2 nM. The same measure for `CC(CCc1ccc(OCCC2CC2)cc1)(C(=O)NO)S(C)(=O)=O` (racemic): 1.36 nM.
